Key:
Experiment in all cases: relative viability (nuclei count vs DMSO), 5 days (fraction); higher = more cells survive
[1] = compound: Cn1nnc2c(C(N)=O)ncn2c1=O [Temozolomide] + O=C(CCCCCCC(=O)Nc1ccccc1)NO [Vorinostat] (partner 1 µM)
In short: (§1)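 Relative viability equals treated-well nuclei counts divided by vehicle-well nuclei counts. Counts came from 4× images of lung cancer cell lines grown in 1536-well plates for 5 days after pin-tool dosing on the day after seeding. Dosing used one drug alone or a fixed anchor-drug dose plus five library-drug doses (not always all listed) in √10 steps, and values are medians of duplicate plates.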

[2] = compound: Cn1nnc2c(C(N)=O)ncn2c1=O [Temozolomide] + Cc1cc(Nc2cc(N3CCN(C)CC3)nc(Sc3ccc(NC(=O)C4CC4)cc3)n2)n[nH]1 [Tozasertib] (partner 0.1 µM)
In short: as §1

AZD5582 + Decitabine = compound: C[C@@H](C(=O)N[C@@H](C1CCCCC1)C(=O)N2CCC[C@H]2C(=O)N[C@@H]3[C@@H](CC4=CC=CC=C34)OCC#CC#CCO[C@@H]5CC6=CC=CC=C6[C@@H]5NC(=O)[C@@H]7CCCN7C(=O)[C@H](C8CCCCC8)NC(=O)[C@H](C)NC)NC [AZD5582] + Nc1ncn([C@H]2C[C@H](O)[C@@H](CO)O2)c(=O)n1 [Decitabine] (partner 2 µM)
In short: as §1

AZD5582 + Crizotinib = compound: C[C@@H](C(=O)N[C@@H](C1CCCCC1)C(=O)N2CCC[C@H]2C(=O)N[C@@H]3[C@@H](CC4=CC=CC=C34)OCC#CC#CCO[C@@H]5CC6=CC=CC=C6[C@@H]5NC(=O)[C@@H]7CCCN7C(=O)[C@H](C8CCCCC8)NC(=O)[C@H](C)NC)NC [AZD5582] + C[C@@H](Oc1cc(-c2cnn(C3CCNCC3)c2)cnc1N)c1c(Cl)ccc(F)c1Cl [Crizotinib] (partner 1 µM)
In short: as §1

Cell Line | relative viability ([1]; first compound 0.2 µM) | relative viability ([1]; first compound 0.6325 µM) | relative viability ([1]; first compound 2 µM) | relative viability ([1]; first compound 6.325 µM) | relative viability ([1]; first compound 20 µM) | relative viability ([2]; first compound 0.2 µM) | relative viability ([2]; first compound 0.6325 µM) | relative viability ([2]; first compound 2 µM) | relative viability ([2]; first compound 6.325 µM) | relative viability ([2]; first compound 20 µM) | relative viability (AZD5582 + Decitabine; first compound 0.001581 µM) | relative viability (AZD5582 + Decitabine; first compound 0.005 µM) | relative viability (AZD5582 + Decitabine; first compound 0.01581 µM) | relative viability (AZD5582 + Decitabine; first compound 0.05 µM) | relative viability (AZD5582 + Crizotinib; first compound 0.001581 µM) | relative viability (AZD5582 + Crizotinib; first compound 0.005 µM) | relative viability (AZD5582 + Crizotinib; first compound 0.01581 µM) | relative viability (AZD5582 + Crizotinib; first compound 0.05 µM)
NCI-H1437 | 0.748 | 0.748 | 0.915 | 0.831 | 0.92 | 0.422 | 0.415 | 0.422 | 0.422 | 0.415 | 0.543 | 0.554 | 0.595 | 0.565 | 0.856 | 0.713 | 0.858 | 0.957
NCI-H1650 | 0.529 | 0.639 | 0.578 | 0.648 | 0.483 | 0.484 | 0.441 | 0.424 | 0.353 | 0.461 | 0.389 | 0.366 | 0.51 | 0.279 | 0.904 | 0.964 | 0.88 | 0.736
NCI-H1651 | 0.582 | 0.49 | 0.628 | 0.499 | 0.613 | 0.716 | 0.779 | 0.674 | 0.684 | 0.684 | 0.572 | 0.571 | 0.559 | 0.654 | 0.85 | 0.91 | 0.854 | 0.939
NCI-H1666 | 1.07 | 1 | 0.94 | 0.794 | 0.868 | 0.594 | 0.589 | 0.631 | 0.531 | 0.5 | 0.658 | 0.73 | 0.626 | 0.704 | 0.662 | 0.817 | 1.01 | 0.808
NCI-H1734 | 0.814 | 0.79 | 0.861 | 0.709 | 0.831 | 0.305 | 0.251 | 0.242 | 0.284 | 0.278 | 0.479 | 0.527 | 0.484 | 0.514 | 0.662 | 0.717 | 0.682 | 0.746
NCI-H1755 | 0.863 | 0.763 | 0.604 | 0.627 | 0.638 | 0.579 | 0.549 | 0.58 | 0.594 | 0.528 | 0.709 | 0.761 | 0.694 | 0.725 | 0.793 | 0.846 | 0.86 | 0.916
NCI-H1915 | 0.61 | 0.517 | 0.507 | 0.343 | 0.241 | 0.482 | 0.417 | 0.471 | 0.317 | 0.268 | 0.278 | 0.26 | 0.276 | 0.259 | 0.854 | 0.916 | 0.915 | 0.882
NCI-H1944 | 0.557 | 0.561 | 0.541 | 0.474 | 0.517 | 0.241 | 0.273 | 0.327 | 0.284 | 0.257 | 0.432 | 0.485 | 0.494 | 0.457 | 0.914 | 1.07 | 1.09 | 1.07
NCI-H1975 | 0.854 | 0.76 | 0.711 | 0.701 | 0.719 | 0.975 | 0.718 | 0.823 | 0.699 | 0.737 | 0.35 | 0.408 | 0.412 | 0.276 | 1.07 | 1.1 | 0.938 | 1.04
NCI-H1993 | 0.546 | 0.829 | 1.07 | 0.798 | 0.507 | 0.566 | 0.618 | 0.616 | 0.577 | 0.639 | 0.634 | 0.7 | 0.603 | 0.613 | 0.824 | 0.826 | 0.819 | 0.915
NCI-H2009 | 0.826 | 0.737 | 0.712 | 0.706 | 0.684 | 0.821 | 0.722 | 0.766 | 0.762 | 0.735 | 0.4 | 0.355 | 0.412 | 0.363 | 1.01 | 1.03 | 0.993 | 1.02
NCI-H2023 | 0.725 | 0.676 | 0.675 | 0.502 | 0.718 | 0.427 | 0.361 | 0.344 | 0.359 | 0.403 | 0.217 | 0.2 | 0.243 | 0.204 | 0.567 | 0.635 | 0.576 | 0.703
NCI-H2085 | 0.87 | 0.816 | 0.865 | 0.76 | 0.68 | 0.735 | 0.784 | 0.86 | 0.817 | 0.855 | 0.527 | 0.644 | 0.608 | 0.545 | 0.732 | 0.874 | 0.854 | 0.754
NCI-H2087 | 0.702 | 0.651 | 0.804 | 0.741 | 0.822 | 0.273 | 0.219 | 0.292 | 0.286 | 0.25 | 0.336 | 0.299 | 0.255 | 0.28 | 0.689 | 0.911 | 0.692 | 0.937
NCI-H2126 | 0.632 | 0.761 | 0.817 | 0.752 | 0.624 | 0.767 | 0.864 | 0.909 | 0.782 | 0.87 | 0.53 | 0.577 | 0.581 | 0.59 | 1.04 | 0.932 | 0.967 | 0.662
NCI-H2170 | – | 0.763 | 0.631 | 0.461 | 0.288 | – | 0.75 | 0.756 | 0.668 | 0.405 | 0.489 | 0.474 | 0.478 | 0.504 | 1.1 | 1.25 | 1.18 | 1.47
NCI-H2347 | 0.476 | 0.668 | 0.674 | 0.629 | 0.635 | 0.496 | 0.552 | 0.579 | 0.544 | 0.576 | 0.701 | 0.624 | 0.668 | 0.469 | 0.657 | 0.601 | 0.509 | 0.701

Reference: the supplement of paper PMC10307832
